Experimental findings from patent publication US11753397B2, “Cereblon binders for the degradation of ikaros” (C4 Therapeutics, Inc., priority 2018, dated 2023) are described below.

For the assay, the system named is NCIH929.1 cells. The assay is described as follows: Cell viability assay (CellTiter-Glo 2.0, ATP quantification). The assay is classed as cell-based. Conditions: NCIH929.1 cell viability, CellTiter-Glo 2.0, 96 hr incubation, top concentration 1 μM. Here is the method: Example 59. Cell Viability Assay
RPMI 1640 medium, fetal bovine serum (FBS) and 2-mercaptoethanol were purchased from Gibco (Grand Island, N.Y., USA). CellTiter-Glo® 2.0 Assay was purchased from Promega (Madison, Wis., USA). NCIH929.1 cell line was purchased from ATCC (Manassas, Va., USA). Cell culture flasks and 384-well microplates were acquired from VWR (Radnor, Pa., USA).
NCIH929.1 cell viability was determined based on quantification of ATP using CellTiter-Glo® 2.0 luminescent Assay kit, which signals the presence of metabolically-active cells. Briefly, the test compound was added to 384-well plates at a top concentration of 1 μM with 10 points, half log titration in duplicates. NCIH929.1 cells were seeded into the 384-well plates in RPMI medium containing 10% FBS and 0.05 mM 2-mercaptoethanol at a cell density of 750 cells per well. Cells treated in the absence of the test compound were the negative control and cells treated in the absence of CellTiter-Glo® 2.0 were the positive control. At the same day of compound treatment, CellTiter-Glo® 2.0 was added to a plate with cells treated in the absence of the test compound to establish Cytostatic control value (CT0). Cells treated with the test compound were incubated at 37° C. with 5% CO2 for 96 hr. CellTiter-Glo reagent was then added to the cells and luminescence was acquired on EnVision™ Multilabel Reader (PerkinElmer, Santa Clara, Calif., USA).

Structures are written as SMILES.

Turning to `C[C@H](C(=O)N1CCC(n2cc(CNc3cccc4c3C(=O)N(C3CCC(=O)NC3=O)C4=O)cn2)CC1)c1ccccc1` (stereo partly drawn) [Compound 51, 2-(2,6-dioxopiperidin-3-yl)-4-(((1-(1-((S)-2-phenylpropanoyl)piperidin-4-yl)-1H-pyrazol-4-yl)methyl)amino)isoindoline-1,3-dione], the GI50 – broadly, the concentration at which growth is held to half of that of the control – was < 100 nM.
The figure for `CC1(C(=O)N2CCC(n3cc(CNc4cccc5c4C(=O)N(C4CCC(=O)NC4=O)C5=O)cn3)CC2)CCCCC1` (centres unmarked) [Compound 63, 2-(2,6-dioxopiperidin-3-yl)-4-(((1-(1-(1-methylcyclohexane-1-carbonyl)piperidin-4-yl)-1H-pyrazol-4-yl)methyl)amino)isoindoline-1,3-dione] is < 1 nM; for `[2H][C@]1(N2C(=O)c3cccc(NCc4cnn(C5CCN(C(=O)OC(C)(C)C)CC5)c4)c3C2=O)CCC(=O)NC1=O` (single isomer, unassigned) [Compound 186] it is < 100 nM; for `Cc1nn(C2CCN(C(=O)C3(C)CCC3)CC2)c(C)c1CNc1cccc2c1C(=O)N(C1CCC(=O)NC1=O)C2=O` (centres unmarked) [Compound 171, 4-(((3,5-Dimethyl-1-(1-(1-methylcyclobutane-1-carbonyl)piperidin-4-yl)-1H-pyrazol-4-yl)methyl)amino)-2-(2,6-dioxopiperidin-3-yl)isoindoline-1,3-dione] it is < 100 nM.
The figure for `O=C1CCC(N2C(=O)c3cccc(NCc4cnn(C5CCN(C(=O)C6(Cc7ccc(F)cc7)CC6)CC5)c4)c3C2=O)C(=O)N1` (centres unmarked) [Compound 92, 2-(2,6-dioxopiperidin-3-yl)-4-(((1-(1-(1-(4-fluorobenzyl)cyclopropane-1-carbonyl)piperidin-4-yl)-1H-pyrazol-4-yl)methyl)amino)isoindoline-1,3-dione] is < 100 nM; for `COc1ccc(-c2cc(C(=O)N3CCC(n4cc(CNc5cccc6c5C(=O)N(C5CCC(=O)NC5=O)C6=O)cn4)CC3)ccn2)cc1` (centres unmarked) [Compound 103, 2-(2,6-dioxopiperidin-3-yl)-4-(((1-(1-(2-(4-methoxyphenyl)isonicotinoyl)piperidin-4-yl)-1H-pyrazol-4-yl)methyl)amino)isoindoline-1,3-dione] it is < 100 nM; for `Cn1nc(C2CC2)cc1CC(=O)N1CCC(n2cc(CNc3cccc4c3C(=O)N(C3CCC(=O)NC3=O)C4=O)cn2)CC1` (centres unmarked) [Compound 125, 4-(((1-(1-(2-(3-cyclopropyl-1-methyl-1H-pyrazol-5-yl)acetyl)piperidin-4-yl)-1H-pyrazol-4-yl)methyl)amino)-2-(2,6-dioxopiperidin-3-yl)isoindoline-1,3-dione] it is < 100 nM.
As for `CC(C)(C)COC(=O)N1CCC(n2cc(CNc3cccc4c3C(=O)N(C3CCC(=O)NC3=O)C4=O)cn2)CC1` (centres unmarked) [Compound 149, neopentyl 4-(4-(((2-(2,6-dioxopiperidin-3-yl)-1,3-dioxoisoindolin-4-yl)amino)methyl)-1H-pyrazol-1-yl)piperidine-1-carboxylate], the GI50 was < 1 nM.
The value for `O=C1CCC(N2C(=O)c3cccc(NCc4cnn(C5CCN(C(=O)C6(c7ccc(F)cc7)CCCC6)CC5)c4)c3C2=O)C(=O)N1` (centres unmarked) [Compound 77, 2-(2,6-dioxopiperidin-3-yl)-4-(((1-(1-(1-(4-fluorophenyl)cyclopentane-1-carbonyl)piperidin-4-yl)-1H-pyrazol-4-yl)methyl)amino)isoindoline-1,3-dione] was < 1 nM.
The figure for `O=C1CCC(N2C(=O)c3cccc(NCc4cnn(C5CCN(C(=O)C6(Cc7ccccc7)CC6)CC5)c4)c3C2=O)C(=O)N1` (centres unmarked) [Compound 71, 4-(((1-(1-(1-benzylcyclopropane-1-carbonyl)piperidin-4-yl)-1H-pyrazol-4-yl)methyl)amino)-2-(2,6-dioxopiperidin-3-yl)isoindoline-1,3-dione] is < 100 nM; for `CC1(C(=O)N2CCC(n3cc(CNc4cccc5c4C(=O)N(C4CCC(=O)NC4=O)C5=O)c(N)n3)CC2)CCC1` (centres unmarked) [Compound 179, 4-(((3-Amino-1-(1-(1-methylcyclobutane-1-carbonyl)piperidin-4-yl)-1H-pyrazol-4-yl)methyl)amino)-2-(2,6-dioxopiperidin-3-yl)isoindoline-1,3-dione] it is < 100 nM.
